Assay [1] deals with CATIE Caucasian schizophrenia patients. The assay can be described thus: Time to discontinuation for all causes in the CATIE study. Format: in vivo, human. Conditions: SULT4A1-1 Negative. The source says: The primary endpoint for the CATIE study was time to discontinuation for all causes (Lieberman et al., 2005). Thus the inventors evaluated the effect of SULT41-1 status on this important parameter.

Another assay has as its system CATIE patients. Put plainly: Kaplan-Meier survival (no hospitalization event) analysis, SULT4A1-1 negative vs positive. Format: in vivo, human. Conditions: FIG. 8. The method, then: A Kaplan-Meier survival analysis was performed to determine whether there was a difference between the survival (hospitalization) rates for the SULT4A1-1 negative and SULT4A1-1 positive patient populations treated with each of the atypical antipsychotics. Survival plots model the fraction of the population that survived (i.e., no hospitalization event) as a function of time.

In assay [2] the test system is CATIE patients with schizophrenia of European ancestry. Put plainly: CATIE Phase I percent change of PANSS from baseline (LOCF), linear model with haplotype and drug therapy. Conditions: Table 18. Format: in vivo, human. The source says: Genotype and phenotype data for the CATIE trial were recently made available to qualified researchers through The NIMH Center for Collaborative Genetic Studies on Mental Disorders. The inventors evaluated data for 417 CATIE patients with schizophrenia self reported as having exclusively European ancestry. This same patient population was described in a recent study by Sullivan and coworkers, which confirmed that there is no hidden stratification in the sample (Sullivan et al., 2008).
The CATIE clinical data set included baseline PANSS scores based on clinical assessments prior to initiation of the assigned therapy, but following the washout period for any patients previously on antipsychotic medication. Follow up PANSS data for the CATIE trial were collected at each visit as described in detail by others (Stroup et al., 2003). Briefly, the first visit was after one month of treatment, and subsequent visits were at somewhat irregular intervals of approximately three months for up to a total 18 months or until discontinuation of treatment, whichever came first.
For all subsequent analyses, the inventors focused on the single haplotype, designated SULT4A1-1. EM algorithm haplotypes were assigned to each patient using HelixTree software (Version 6.4.1; Golden Helix, Bozeman, Mont.), and each individual was scored as being positive or negative for the presence of the haplotype. The inventors assigned SULT4A1-1 haplotype status to those individuals for which EM algorithm assignment could be made with error probabilities of <1%. This included a total of 395 patients from the CATIE study. With the exception of four of the 395 patients in the CATIE study, SULT4A1-1 haplotype status could be assigned with error probabilities of <1×10-5.
Since follow-up on subjects was not done at uniform time intervals, analysis was done using the last observation for each patient in treatment Phase I of the trial as the measure of response (last observation carried forward, LOCF). Main effect and interaction terms between the SULT4A1-1 haplotype and drug therapy were included in the linear model. A pre-determined set of contrasts for differences in percent change PANSS by haplotype within each drug therapy (three comparisons) and by drug therapy within each haplotype (six comparisons) were evaluated, with adjustment for multiple-comparisons using the step-up false-discovery rate (FDR) controlling procedure (Benjamini and Hochberg, 1995). A sub-analysis omitting those patients who were randomized to the same antipsychotic drug therapy was also conducted. […]

Assay [3] concerns patients, unsegmented populations. Conditions: Meta-analysis, Leucht et al. (2009); cited from earlier work.
Another assay concerns CATIE Caucasian subjects. The assay can be described thus: Rate of hospitalization due to exacerbation of psychosis in CATIE by SULT4A1-1 status. Format: in vivo, human. Conditions: CATIE Phases 1, 2 and/or 3. The source says:
For this analysis, the inventors assigned a dichotomous value (positive or negative) for hospitalization status to subjects in each phase of the trial based on only the first hospitalization event for a given patient in that phase.

Assay [4] has as its system CATIE African American schizophrenia patients. The assay can be described thus: CATIE drug response: change in total PANSS (LOCF), segmented by SULT4A1-1 status, African Americans. The format is in vivo, human. The method, then:
The design of the CATIE study has been described in detail by others (Lieberman et al., 2005; Stroup et al., 2003). […] A total of 738 subjects consented to provide DNA for genetic study. […] Retrospective genetic analyses, judged to be exempt from human studies requirements by an IRB, were conducted in the current study. All tested patients were studied using well established clinical endpoints comparing baseline, intermediate, and last observation carried forward (LOCF) for the PANSS scores using CATIE data. […] To remove time on drug as a variable for the CATIE trial, analysis was limited to only those patients who were randomized to a different drug following the initial washout period (drug switchers).

Marks after values point to notes of the source that are not given here.

In the case of `OCCOCCN1CCN(C2=Nc3ccccc3Sc3ccccc32)CC1` [Quetiapine], the “Time to discontinuation, mean time in months” value in assay [1] is listed as 8.6*** Months. Also, in the assay on CATIE patients, the “Difference between survival (no hospitalization) rates of SULT4A1-1 negative and SULT4A1-1 positive patients” value is on record as “significant difference”. The “Difference in percent change in PANSS score” value in assay [2] (Complete Sample, SULT4A1-1+ patients, labelled drug vs Risperidone) is −1.0%; in assay [2] (Complete Sample, same drug, SULT4A1-1+ vs SULT4A1-1−) it was −5.4%; in assay [2] (Patients Randomized to a Different Medication, SULT4A1-1+ patients, labelled drug vs Risperidone) it was −4.6%; in assay [2] (Patients Randomized to a Different Medication, same drug, SULT4A1-1+ vs SULT4A1-1−) it was −6.8%. The “Mean Difference in Total PANSS Score, Olanzapine vs. labelled drug” value in assay [3] is −3.7. For the same compound, the figures for the “HOSP (number of subjects hospitalized)” value in the assay on CATIE Caucasian subjects (SULT4A1-1 Positive), in the assay on CATIE Caucasian subjects (SULT4A1-1 negative) and in the assay with CATIE Caucasian subjects (Unsegmented) were 1, 24 and 25, respectively. Besides, the “HOSP (rate of hospitalization)” value in the assay on CATIE Caucasian subjects (SULT4A1-1 Positive) is recorded as “(2.9%)”; in the assay on CATIE Caucasian subjects (SULT4A1-1 negative), “(19.5%)”. Besides, the figures for the “≦−20% (number of individuals; responders)” value in assay [4] (SULT4A1-1 Negative) and in assay [4] (SULT4A1-1 Positive) were 9 and 2, respectively. The “≧−20% (number of individuals; non-responders)” value in assay [4] (SULT4A1-1 Negative) is recorded as 25; in assay [4] (SULT4A1-1 Positive), 4.

Values taken from patent publication US7972793B2, “Methods and compositions for the treatment of psychotic disorders through the identification of the SULT4A1-1 haplotype” (Suregene, LLC, priority 2009, dated 2011).
